From PMC3345099 (Journal of Immunology (Baltimore, Md. : 1950), 2012) come the findings set out here.

Residues, ends and D or L forms follow the SMILES beside them. No end group written: not given here.

Broadly, the IC50 is the concentration that inhibits the measured activity by half.

Common to all, as to assay: In vitro radiolabeled competitive HLA binding assay
Assay [1] addresses HLA A*02:01 (purified MHC class I) (Homo sapiens, UniProt P04439, D140Y/D185E/D98H/E176V/E277Q/G131W/G231S/I119V/I121R/I166T/I218V/L300P/L318F/N151K/N90K/P208A/P217A/Q86G/Q94H/R138H/R169H/T345S).
Assay [2] addresses HLA B*08:01 (purified MHC class I) (Homo sapiens, UniProt P01889, A93T/A95T/D138N/E176V/E187T/K202T/Q94N/R180D/S35A/V36M/Y33D/Y91F).
Assay [3] has as its target HLA B*07:02 (purified MHC class I) (Homo sapiens, UniProt P01889).
The target of assay [4] is HLA B*40:01 (purified MHC class I) (Homo sapiens, UniProt P01889, A65T/A93T/A95T/D138N/D98Y/E176V/E69K/N87E/Q56L/Q94N/R180L/S121R/S35A/S48T/T167S/V36M/W171L/Y33H/Y91S).
Assay [5] concerns the target HLA B*40:02 (purified MHC class I) (Homo sapiens, UniProt P01889, A65T/A93T/A95T/D138N/D201E/D98Y/E176V/E204Q/E69K/K202T/N87E/Q56L/Q94N/R180L/S48T/Y33H/Y91S).
In assay [6] the target is HLA A*26:01 (purified MHC class I) (Homo sapiens, UniProt P04439, A114D/A173T/A270S/D101N/D185E/E277Q/E87N/F33Y/G231S/I121R/I218V/K168Q/L180W/L300P/L318F/P208A/P217A/Q86R/Q94H/R138Q/S129P/T187R/T323A/T345S/V100A/V358M).

Compound VLSDFKTWL gave an IC50 in assay [1] of 305 nM. On the same count and under the same terms, then SLLAPGAKQNV, with 513 nM; and RLWHYPCTV, with 12 nM. In the case of `CC(C)C[C@H](NC(=O)[C@H](CCC(=O)O)NC(=O)[C@H](CC(=O)O)NC(=O)[C@H](CS)NC(=O)[C@H](CCCCN)NC(=O)[C@H](CCCCN)NC(=O)[C@H](CCCCN)NC(=O)[C@H](CO)NC(=O)[C@@H](N)Cc1c[nH]cn1)C(=O)O`, the half-inhibitory concentration (IC50) in assay [2] came out at 764 nM. For `CC[C@H](C)[C@H](N)C(=O)N1CCC[C@H]1C(=O)N[C@@H](Cc1ccccc1)C(=O)N[C@@H](Cc1ccc(O)cc1)C(=O)NCC(=O)N[C@@H](CCCCN)C(=O)N[C@@H](C)C(=O)N[C@H](C(=O)O)[C@@H](C)CC`, the concentration for half-maximal inhibition (IC50) in assay [3] was 497 nM. That is a sub-micromolar value.

Consider LEDRDRSEL, for which the values for the concentration for half-maximal inhibition (IC50) in assay [4] and in assay [5] were 426 nM and 4270 nM, respectively. With `CC(C)C[C@H](NC(=O)[C@H](C)NC(=O)[C@H](CC(C)C)NC(=O)[C@@H](N)CC(C)C)C(=O)N[C@@H](CC(C)C)C(=O)N[C@@H](CO)C(=O)N[C@@H](CS)C(=O)N[C@@H](CC(C)C)C(=O)N[C@H](C(=O)N[C@H](C(=O)O)C(C)C)[C@@H](C)O`, the IC50 in assay [1] amounted to 357 nM. In other words, the sub-micromolar range. The compound `CSCC[C@H](NC(=O)[C@H](CO)NC(=O)[C@H](CS)NC(=O)[C@H](CS)NC(=O)[C@@H](NC(=O)[C@@H](NC(=O)[C@@H](N)CC(=O)O)C(C)C)C(C)C)C(=O)N[C@@H](CO)C(=O)N[C@@H](Cc1ccc(O)cc1)C(=O)O` (H-DVVCCSMSY-OH) gave a half-maximal inhibitory concentration (IC50) in assay [6] of 25 nM. For the compound GVDPNIRTGV, the 50% inhibitory concentration (IC50) in assay [1] is 351 nM. Consider HPALVFDIT, for which the IC50 in assay [3] came out at 160 nM. Turning to FLVGQLFTF, the IC50 in assay [1] came out at 67 nM.

Consider GIDPNIRTGV, for which, in assay [1], the IC50 was found to be 722 nM. This IC50 lies about 11-fold higher than the previous one.
